Data taken from US9695132B2, “Heteroaryl compounds and uses thereof” (Celgene CAR LLC, priority 2013, dated 2017).
“Also recorded” adds a separate entry of the source. Like-named read-outs stand apart in the source and are kept apart here.

How the values were obtained:
FGFR4-WT = FGFR4-WT (Homo sapiens (Human), UniProt P22455); assay: Omnia assay for potency assessment against FGFR4 enzyme; assay type: biochemical
Protocol: A 10× stock solution of FGFR4-WT (PR4380C), (from Invitrogen, Carlsbad, Calif.) corresponding to method a in Table 7, was prepared as described below. Alternatively, a 10× stock solution of FGFR4-WT (F01-11G), (SignalChem, Richmond, BC) corresponding to method b in Table 7, was prepared as described below. A solution of 1.4×ATP (AS001A) and 5× Tyr-Sox conjugated peptide substrate (KNZ3101) were prepared in 1× kinase reaction buffer consisting of 20 mM Tris, pH 7.5, 5 mM MgCl2, 1 mM EGTA, 5 mM β-glycerophosphate, 5% glycerol (10× stock, KB002A) and 0.2 mM DTT (DS001A). […] The serially diluted compounds were prepared on a Tecan EVO100. A second addition of 10 μl of Tyr-Sox FGFR4 substrate was added to each well and the kinase reactions were started with the addition of 35 μL of 1.4×ATP. The reactions were monitored every 71 seconds for 240 minutes at λex360/λem485 in a Synergy plate reader from BioTek (Winooski, Vt.).

[1] = biological target: FGFR4 in MDA-MB-453 cells (Homo sapiens, UniProt P22455); assay: Target occupancy assay with biotinylated covalent probe I-127; assay type: cell-based
FGFR4 in MDA-MB-453 cells, sequence (P22455 22-802 limits assumed): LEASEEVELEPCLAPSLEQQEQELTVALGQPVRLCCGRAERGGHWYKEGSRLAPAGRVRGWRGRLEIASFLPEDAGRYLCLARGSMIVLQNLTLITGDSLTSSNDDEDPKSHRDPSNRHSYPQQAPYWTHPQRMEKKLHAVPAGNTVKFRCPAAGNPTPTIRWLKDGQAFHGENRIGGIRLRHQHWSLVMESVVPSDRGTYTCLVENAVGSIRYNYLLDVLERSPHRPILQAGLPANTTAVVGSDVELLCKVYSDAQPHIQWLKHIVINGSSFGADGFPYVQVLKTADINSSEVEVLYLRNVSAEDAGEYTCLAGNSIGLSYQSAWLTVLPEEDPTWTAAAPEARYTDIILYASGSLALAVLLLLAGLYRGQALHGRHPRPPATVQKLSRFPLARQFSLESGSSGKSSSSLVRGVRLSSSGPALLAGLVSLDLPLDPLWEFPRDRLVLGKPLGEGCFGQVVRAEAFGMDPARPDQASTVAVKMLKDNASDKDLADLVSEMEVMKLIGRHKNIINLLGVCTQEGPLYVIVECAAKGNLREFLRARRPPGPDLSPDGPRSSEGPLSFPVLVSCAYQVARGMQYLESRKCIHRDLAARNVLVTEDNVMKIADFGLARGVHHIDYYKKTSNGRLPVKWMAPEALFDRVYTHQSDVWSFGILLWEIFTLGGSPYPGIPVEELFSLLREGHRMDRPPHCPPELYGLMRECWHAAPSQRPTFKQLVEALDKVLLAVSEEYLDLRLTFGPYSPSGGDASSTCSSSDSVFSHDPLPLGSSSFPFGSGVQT
Protocol: In order to assess free FGFR4 protein a biotinylated covalent probe was utilized. […] The reaction was incubated for 2 hr at room temperature. The samples and probe mixture were transferred to a FGFR4-coated MSD plate for 2 hr at room temperature. MSD signals were obtained with an anti-streptavidin Sulfo-tag (Meso Scale) antibody for 1 hr at room temperature. […] If a compound completely (100%) covalently modies FGFR4 no free FGFR4 should be available for covalent modification by the biotinylated probe and subsequent binding to streptavidin and detection.

pFGFR4 in Huh7 cells = pFGFR4 in Huh7 cells (Homo sapiens (Human), UniProt P22455); assay: FGFR4 signaling, Meso Scale assay (MSD), Method B, Huh7
pFGFR4 in Huh7 cells, sequence (P22455 22-802): as the sequence (P22455 22-802 limits assumed) above
Protocol: Huh7 cells were grown in DMEM (Invitrogen, Carlsbad, Calif.) supplemented with 10% FBS (Invitrogen) and 1% Penicillin-Streptomycin (P/S, Lonza, Walkersville, Md.).
For the MSD and ELISA assays, total FGFR4 antibodies were obtained from R&D Systems (Minneapolis, Minn.) and used at 1:500. […] Phospho-FGFR antibodies were obtained from Cell Signaling (Danvers, Mass.) or R&D Systems and used at 1:1000. The phopho-FGFR antibody from Cell Signaling was used for immunoblotting, whereas the phopho-FGFR antibody from R&D was used for MSD and ELISA assays. Secondary antibodies were used at 1:10,000. The goat anti-mouse IgG IRDye 800CW antibody was obtained from LiCor Biosciences (Lincoln, Nebr.) and the goat anti-rabbit IgG Alexa Fluor 680 was obtained from Invitrogen. The anti-rabbit Sulfo-tag and anti-streptavidin Sulfo-tag antibodies was obtained from Meso Scale Discovery (Gaithersburg, Md.), and were used at 1:1000 and 1:5000, respectively.
After treatment, the cells were washed with cold PBS (Invitrogen), and were immediately lysed by freeze/thawing 3× in 32 μL of cold Cell Extraction Buffer (Invitrogen), which was supplemented with Complete Protease inhibitors (Roche) and PhosphoSTOP (Roche) phosphatase inhibitors.
MSD plates (Meso Scale Discovery) were coated with total FGFR-4 antibodies overnight at 4° C. A lysate (25 μL) was added to the MSD plate overnight at 4° C. The MSD signals were obtained by incubating with a phospho-FGFR antibody (R&D Systems) and an anti-rabbit sulfo-tag antibody (Meso Scale), for 2 hr at room temperature. […] The data was fitted using a sigmoidal curve analysis program (Graph Pad Prism version 5) with variable Hill slope to determine the EC50 values.

[2] = biological target: pFGFR4 in MDA-MB-453 cells (Homo sapiens, UniProt P22455); assay: Washout experiment (pFGFR4 after compound removal); assay type: cell-based; settings: 1000-2000 nM for 1 hr, washed, followed up to 24 hr
pFGFR4 in MDA-MB-453 cells, sequence (P22455 22-802 limits assumed): as above
Protocol: The cells were allowed to settle down for 4 hrs and were then maintained in low-serum (0.1% FBS) media overnight. The following morning, the media was removed and the cells were treated with 1000-2000 nM of test compound in low-serum media for 1 hr. The cells were washed free of test compound (3×) with PBS (Invitrogen). One set of cells was immediately lysed as indicated above as the 0 hr time point. The remaining cells were incubated with the appropriate complete growth media (10-20% FBS) for 1, 2, 4, 8, 16 (in certain circumstances) and 24 hr. DMSO (0.5%) controls were collected at all time points.

[3] = method b: [FGFR4-WT]=2.5 nM (SignalChem), [ATP]=250 uM, [Y10-Sox]=10 uM
[4] = method a: [FGFR4-WT]=10 nM (Invitrogen), [ATP]=300 uM, [Y10-Sox]=10 uM

FGFR4-WT, sequence (P22455 22-802): as the sequence (P22455 22-802 limits assumed) above

Row | Compound | IC50 (FGFR4-WT; [4]) [nM] | EC50 (pFGFR4 in Huh7 cells) [nM] | also measured
1 | C=CC(=O)Nc1ccccc1Nc1ncc2c(n1)N(Cc1ccccc1)C(=O)N(c1c(Cl)c(OC)cc(OC)c1Cl)C2 [Compound I-3] |  |  | IC50 (FGFR4-WT; [3]): < 100 nM; EC50 [1]: < 100 nM
2 | C=CC(=O)NC1CCCCC1Nc1ncc2c(n1)N(Cc1cccnc1)C(=O)N(c1c(Cl)c(OC)cc(OC)c1Cl)C2 (racemic) [Compound I-35] |  |  | EC50 [1]: 101 to 500 nM
3 | C=CC(=O)NC1CCCCC1Nc1ncc2c(n1)N(Cc1ccccc1)C(=O)N(c1c(Cl)c(OC)cc(OC)c1Cl)C2 (racemic) [Compound I-63] |  |  | EC50 [1]: 101 to 500 nM
4 | C=CC(=O)NC1COCC1Nc1ncc2c(n1)N(C)C(=O)N(c1c(F)c(OC)cc(OC)c1F)C2 (stereo not drawn) [Compound I-198] | < 100 | < 100 | 
5 | C=CC(=O)Nc1ccccc1Nc1ncc2c(n1)N(CC#N)C(=O)N(c1cc(OC)cc(OC)c1)C2 [Compound I-48] | < 100 | 101 to 500 | 
6 | C=CC(=O)N[C@@H]1COC[C@@H]1Nc1ncc2c(n1)N(C)C(=O)N(c1c(Cl)c(OC)cc(OC)c1Cl)C2 [Compound I-185] | > 1000 | > 1000 | 
7 | C=CC(=O)NC1CN(c2ccn(C)n2)CC1Nc1ncc2c(n1)N(C)C(=O)N(c1c(Cl)c(OC)cc(OC)c1Cl)C2 (stereo not drawn) [Compound I-204] | < 100 | < 100 | 
8 | C=CC(=O)Nc1cc(-c2nnnn2C)ccc1Nc1ncc2c(n1)N(C)C(=O)N(c1c(Cl)c(OC)cc(OC)c1Cl)C2 [Compound I-153] | < 100 | < 100 | 
9 | C=CC(=O)N[C@H]1CCCC[C@H]1Nc1ncc2c(n1)N(C)C(=O)N(c1cc(OC)c(OC)c(OC)c1)C2 [Compound I-220] | > 1000 | > 1000 | 
10 | C=CC(=O)Nc1ccccc1Nc1ncc2c(n1)N(Cc1cccnc1)C(=O)N(c1cc(OC)cc(OC)c1)C2 [Compound I-44] | < 100 | < 100 | 
11 | C=CC(=O)NC1CCCCC1Nc1ncc2c(n1)N(CC(F)F)C(=O)N(c1c(F)c(OC)cc(OC)c1F)C2 (stereo not drawn) [Compound I-115] | 101 to 500 | 101 to 500 | 
12 | C=CC(=O)Nc1ccccc1Nc1ncc2c(n1)N(Cc1ccc(F)cc1)C(=O)N(c1c(Cl)c(OC)cc(OC)c1Cl)C2 [Compound I-25] |  | 101 to 500 | IC50 (FGFR4-WT; [3]): 101 to 500 nM
13 | C=CC(=O)Nc1ccccc1Nc1ncc2c(n1)N(CCOC)C(=O)N(c1cc(OC)cc(OC)c1)C2 [Compound I-59] | < 100 | 101 to 500 | 
14 | C=CC(=O)Nc1ccccc1Nc1ncc2c(n1)N(C)C(=O)N(c1c(F)c(OC)cc(OC)c1F)C2 [Compound I-131] | < 100 | < 100 | 
15 | C=CC(=O)Nc1cc(C)ccc1Nc1ncc2c(n1)N(C)C(=O)N(c1cc(OC)cc(OC)c1)C2 [Compound I-41] | < 100 | 101 to 500 | 
16 | C=CC(=O)Nc1ccccc1Nc1ncc2cc(-c3c(Cl)c(OC)cc(OC)c3Cl)c(=O)n(C)c2n1 [Compound I-244] | < 100 | < 100 | 
17 | C=CC(=O)NC1CCCCC1Nc1ncc2c(n1)N(Cc1cscn1)C(=O)N(c1c(Cl)c(OC)cc(OC)c1Cl)C2 (racemic) [Compound I-69] |  |  | duration of action against pFGFR4 signalling after washout [2]: prolonged inhibition of autophosphorylation of FGFR4; also recorded: prolonged duration of action
18 | C=CC(=O)Nc1cc(C(F)(F)F)ccc1Nc1ncc2c(n1)N(C)C(=O)N(c1cc(OC)cc(OC)c1)C2 [Compound I-42] | < 100 | < 100 | 
19 | C=CC(=O)NC1CCCCC1Nc1ncc2c(n1)N(Cc1ccnc(N)c1)C(=O)N(c1c(Cl)c(OC)cc(OC)c1Cl)C2 (stereo not drawn) [Compound I-133] | < 100 | < 100 | 

Row | Compound | IC50 (FGFR4-WT; [4]) [nM] | EC50 (pFGFR4 in Huh7 cells) [nM] | also measured
20 | CCC(=O)Nc1ccccc1Nc1ncc2c(n1)N(Cc1ccccc1)C(=O)N(c1c(Cl)c(OC)cc(OC)c1Cl)C2 [Compound I-236] |  |  | IC50 (FGFR4-WT; [3]): 101 to 500 nM; EC50 [1]: > 1000 nM
21 | CCC(=O)Nc1cccc(CN2C(=O)N(c3c(Cl)c(OC)cc(OC)c3Cl)Cc3cnc(Nc4ccccc4NC(=O)CC)nc32)c1 [Compound I-234] |  |  | IC50 (FGFR4-WT; [3]): 101 to 500 nM; EC50 [1]: > 1000 nM; duration of action against pFGFR4 signalling after washout [2]: does not show prolonged duration of action; also recorded: does not have PDA
22 | C=CC(=O)Nc1nn(C)cc1Nc1ncc2c(n1)N(C)C(=O)N(c1c(Cl)c(OC)cc(OC)c1Cl)C2 [Compound I-117] | < 100 | < 100 | 
23 | C=CC(=O)Nc1ccccc1Nc1ncc2c(n1)N(C1CCCN(C(=O)OC(C)(C)C)C1)C(=O)N(c1cc(OC)cc(OC)c1)C2 (stereo not drawn) [Compound I-36] | < 100 | 101 to 500 | 
24 | C=CC(=O)NC1COCC1Nc1ncc2c(n1)N(C)C(=O)N(c1cc(OC)c(OC)c(OC)c1)C2 (stereo not drawn) [Compound I-207] | > 1000 | > 1000 | 
25 | C=CC(=O)NC1COCC1Nc1ncc2c(n1)N(C)C(=O)N(c1ccc(OC)cc1)C2 (stereo not drawn) [Compound I-209] | > 1000 | > 1000 | 
26 | C=CC(=O)Nc1ccccc1Nc1ncc2c(n1)N(C)C(=O)N(c1c(Cl)cccc1Cl)C2 [Compound I-83] | 101 to 500 | 101 to 500 | 
27 | C=CC(=O)NC1CCCCC1Nc1ncc2c(n1)N(Cc1ccn(C)c(=O)c1)C(=O)N(c1c(Cl)c(OC)cc(OC)c1Cl)C2 (stereo not drawn) [Compound I-132] | < 100 | 101 to 500 | 
28 | C=CC(=O)NC1CCCCC1Nc1ncc2c(n1)N(Cc1csc(C)n1)C(=O)N(c1c(Cl)c(OC)cc(OC)c1Cl)C2 (stereo not drawn) [Compound I-137] | < 100 | 101 to 500 | 
29 | C=CC(=O)N[C@H]1COC[C@H]1Nc1ncc2c(n1)N(C)C(=O)N(c1c(Cl)c(OC)cc(OC)c1Cl)C2 [Compound I-186] | < 100 | < 100 | 
30 | C=CC(=O)N[C@H]1CCCC[C@H]1Nc1ncc2c(n1)N(C)C(=O)N(c1c(F)c(OC)cc(OC)c1F)C2 [Compound I-143] | < 100 | 101 to 500 | 
31 | C=CC(=O)Nc1ccccc1Nc1ncc2c(n1)N(Cc1cccc(F)c1)C(=O)N(c1c(Cl)c(OC)cc(OC)c1Cl)C2 [Compound I-12] |  |  | IC50 (FGFR4-WT; [3]): 101 to 500 nM; EC50 [1]: 101 to 500 nM
32 | C=CC(=O)Nc1ccccc1Nc1ncc2c(n1)N(CC(F)F)C(=O)N(c1cc(OC)cc(OC)c1)C2 [Compound I-99] | < 100 | 101 to 500 | 
33 | C=CC(=O)NC1COCC1Nc1ncc2c(n1)N(Cc1ccn(C)n1)C(=O)N(c1c(Cl)c(OC)cc(OC)c1Cl)C2 (stereo not drawn) [Compound I-215] | < 100 | < 100 | 
34 | C=CC(=O)Nc1cc(N2CCN(C(=O)CCCC(=O)NCCCOCCOCCOCCCNC(=O)CCCC[C@@H]3SC[C@@H]4NC(=O)N[C@@H]43)CC2)ccc1Nc1ncc2c(n1)N(C)C(=O)N(c1c(Cl)c(OC)cc(OC)c1Cl)C2 [Compound I-127] |  | 101 to 500 | IC50 (FGFR4-WT): < 100 nM
35 | C=CC(=O)Nc1cc(C(=O)NC2CCN(C)CC2)ccc1Nc1ncc2c(n1)N(C)C(=O)N(c1cc(OC)cc(OC)c1)C2 [Compound I-151] | < 100 | > 1000 | 
36 | C=CC(=O)Nc1cc(N(C)CCOC)ccc1Nc1ncc2c(n1)N(Cc1ccccc1)C(=O)N(c1cc(OC)cc(OC)c1)C2 [Compound I-13] |  | 101 to 500 | IC50 (FGFR4-WT; [3]): 101 to 500 nM
37 | C=CC(=O)NC1COCC1Nc1ncc2c(n1)N(C)C(=O)N(c1c(F)c(OC)cc(OC)c1Cl)C2 (stereo not drawn) [Compound I-206] | < 100 | < 100 | 
